Legend:
Format in all cases: in vitro ADME
[1] = Metabolic stability in hepatocytes, human; details: pooled cryopreserved hepatocytes, read-out: Human Clint (μL/min/10^6 cells)
[2] = Liver microsomal stability, dog; details: male, Beagle, pH 7.4, liver microsomes
Experimental: Mouse hepatic microsomes were isolated from pooled, perfused livers of male CD1 mice. Rat hepatic microsomes were isolated from pooled, perfused livers of male Sprague Dawley rats. Dog hepatic microsomes were isolated from pooled, perfused livers of male Beagle dogs. The batches of microsomes were tested for quality control using Testosterone, Propranolol and Caffeine as reference compounds.
A 10 mM stock solution of compound in DMSO is diluted three-fold in DMSO. This pre-diluted compound solution is then further diluted to 2 μM in a 50 mM phosphate buffer (PBS, pH 7.4) and pre-warmed at 37° C. This compound dilution is mixed F2 with microsomal/cofactor mix at 37° C. under shaking at 300 rpm. Final reaction conditions are: 100 μL incubation volume, 1 μM of test compound (in duplicate), <0.1% DMSO, 0.5 mg/mL microsomes, 0.6 U/mL Glucose-6-phosphate-dehydrogenase (G6PDH, Roche, 10127671001), 3.3 mM MgCl2 (Sigma, M2670), 3.3 mM glucose-6-phosphate (Sigma, G-7879) and 1.3 mM NADP+ (Sigma, N-0505).
After 60 min of incubation at 300 rpm and 37° C., the reaction was stopped with 3 volumes of STOP solution (acetonitrile/MeOH 2/1 with diclofenac as internal standard). For the time point zero, 3 volumes of STOP solution were added to the compound dilution before the microsome mix was added. Six time points over 60 minutes have been analyzed. The samples of all time points were centrifuged, filtered and the supernatant analyzed by LCMS/MS (systems API4000).
The instrument responses (peak areas/IS peak area) were referenced to the zero time-point samples (considered as 100%) in order to determine the percentage of compound remaining.
Testosterone (1 μM) and Propranolol and Caffeine (1 μM) were used as reference compounds, being unstable and stable compounds respectively. If the microsomal stability values for these controls are not in the range determined by the historical data, the assay is not validated. The solubility of the compound in the final test concentration in 50 mM buffer pH 7.4 is checked by microscope to indicate whether precipitation is observed or not. If a precipitate is observed, no data of microsomal stability is generated.

[3] = Caco-2 permeability assay; details: human; for recovery at 90 min, 10 µM / efflux ratio at 90 min, 10 µM: Caco-2, pH 7.4; for Papp A→B at 90 min, 10 µM: pH 7.4, Caco-2, AB
Experimental: Caco-2 cells were cultured in 75 cm^2 flasks to 80-90% confluence according to the ATCC and Millipore recommendations (Arena A. et al., 2003) in humidified atmosphere at 37° C. and 5% CO2. Cells were detached with Trypsin/EDTA solution and resuspended in the cell culture medium to a final concentration of 2×10^5 cells/ml. 500 μl of the cell suspension was added to each well of HTS 24-Multiwell Insert System and 1000 μl of prewarmed complete medium was added to each well of the feeder-plate. Caco-2 cells were incubated in Multiwell Insert System for 21 days before the transport experiments. The medium in filter plate and feeder tray was refreshed every other day. After 21 days of the cell growth, the integrity of the monolayer was verified by measuring the transepithelial electrical resistance (TEER) for every well using the Millicell-ERS system ohm meter. The final TEER values were within the range 150-600 Ω×cm^2 (Srinivasan B. et al., 2015) as required for the assay conditions. 24-well insert plate was removed from its feeder plate and placed in a new sterile 24-well transport analysis plate. The inserts were washed with PBS after medium aspiration. To determine the rate of compounds transport in apical (A)-to-basolateral (B) direction, 300 μL of the test compound dissolved in transport buffer at 10 μM (HBSS, 25 mM HEPES, pH=7.4) was added into the filter wells; 1000 μL of buffer (HBSS, 25 mM HEPES, pH=7.4) was added to transport analysis plate wells. Propranolol, Atenolol, Quinidine and Digoxin were used as reference compounds. The plates were incubated for 90 min at 37° C. under continuous shaking at 50 rpm. 75 μL aliquots were taken from the donor and receiver compartments for LC-MS/MS analysis. All samples were mixed with 2 volumes of acetonitrile followed by protein sedimentation by centrifuging at 10000 rpm for 10 minutes. Supernatants were analyzed using the HPLC system coupled with tandem mass spectrometer. The apparent permeability (Papp) was calculated for Caco-2 permeability assay using the following equation:
• VA=volume of transport buffer in acceptor well • Area=surface area of the insert (equals to effective growth area of the insert −0.31 sq.cm) • Time=time of the assay • [drug]acc=concentration of test compound in acceptor well • [drug]initial,d=initial concentration of test compound in a donor well • Papp is expressed in 10^−6 cm/sec.
The % recovery can be useful in interpreting the Caco-2 data. If the recovery is very low, this may indicate poor solubility, binding of the compound to the test plate materials, metabolism by the Caco-2 cells, or accumulation of the compound in the cell monolayer. The % recovery was calculated using the following equation:
• Vacc=volume of compound solution in acceptor well […] • Vd=volume of compound solution in […] • Cacc=concentration of test compound in acceptor well (μM) • Cinitial,d=initial concentration of test compound in a donor well (μM)

[4] = Caco-2 permeability assay; details: human, pH 7.4; Caco-2, BA

hepatocyte CLint at 1 µM [1] [µL/min/1e6 cells]	microsomal CLint at 1 µM [2] [µL/min/mg]	recovery at 90 min, 10 µM [3] [%]	Papp A→B at 90 min, 10 µM [3] [×10⁻⁶ cm/s]	Compound	Papp B→A at 90 min, 10 µM [4] [×10⁻⁶ cm/s]	efflux ratio at 90 min, 10 µM [3]
5.8	< 11.5			CC(C)Cc1cc(F)c(-c2nn[nH]n2)c(N2CCN(Cc3ccccn3)[C@@H](C)C2)c1 [Compound A-217, (2S)-4-[3-fluoro-5-isobutyl-2-(2H-tetrazol-5-yl)phenyl]-2-methyl-1-(2-pyridylmethyl)piperazine]		
		77	2.8	CC(C)Cc1ccc(-c2nn[nH]n2)c(N2CCN(Cc3nc4ccccc4c(=O)[nH]3)CC2)c1 [Compound A-31, 2-[[4-[5-isobutyl-2-(2H-tetrazol-5-yl)phenyl]piperazin-1-yl]methyl]-3H-quinazolin-4-one]		
		91	< 3.4	CC(C)Cc1ccc(-c2nn[nH]n2)c(N2CCN(Cc3cccnn3)CC2)c1 [Compound A-90, 3-[[4-[5-isobutyl-2-(2H-tetrazol-5-yl)phenyl]piperazin-1-yl]methyl]pyridazine]		
< 2.9	< 11.7	90	0.15	CC(C)Cc1cc(F)c(-c2nn[nH]n2)c(N2CCN(Cc3cccnn3)[C@@H](C)C2)c1 [Compound A-174, 3-[[(2S)-4-[3-fluoro-5-isobutyl-2-(2H-tetrazol-5-yl)phenyl]-2-methyl-piperazin-1-yl]methyl]pyridazine]	2.4	16

Compound	hepatocyte CLint at 1 µM [1] [µL/min/1e6 cells]	microsomal CLint at 1 µM [2] [µL/min/mg]	recovery at 90 min, 10 µM [3] [%]	Papp A→B at 90 min, 10 µM [3] [×10⁻⁶ cm/s]	Papp B→A at 90 min, 10 µM [4] [×10⁻⁶ cm/s]	efflux ratio at 90 min, 10 µM [3]
CCC1CN(c2cc(CC(C)C)cc(F)c2-c2nn[nH]n2)CCN1Cc1cccnn1 (stereo not shown) [Compound A-178, 3-[[2-ethyl-4-[3-fluoro-5-isobutyl-2-(2H-tetrazol-5-yl)phenyl]piperazin-1-yl]methyl]pyridazine]			94	1.2	8.6	7.2
